The values below come from paper PMC7435928, “Preclinical Evaluation of NHS-Activated Gold Nanoparticles Functionalized with Bombesin or Neurotensin-Like Peptides for Targeting Colon and Prostate Tumours” (Molecules, 2020).

For data set [1], the system named is human proliferating CRL9855 monocytes. The data set can be described thus: MTS reduction test (cytotoxicity). As to conditions: free peptides 1–4 nmol/mL, 48 h, triplicate. On the technique in general: Formazan colour is commonly taken as a measure of viable cells.
Protocol: (§3) The MTS reduction test was used to evaluate the number of metabolically active cells in culture, under various experimental conditions.
(§4) Briefly, cells were cultivated in 96-well plates (3 × 10^4 CRL9855 cells/mL, 10 × 10^4 HT-29 cells/mL and 5 × 10^4 DU-145 cells/mL) in a total volume of 100 μL. Adherent cells were left for 24 h to adhere to the culture well. Thereafter, NPs and peptides were added at various concentrations and cells were cultivated for 48 h. Non-treated cells were considered as control (CTRL). For background assessment culture medium, NPs and peptides were cultivated in absence of cells, considering that NPs might interfere with the spectrophotometric measurement. All samples were cultivated in triplicate. At the end of the incubation time, 20 μL of MTS reagent were added and samples were cultivated for another 1–3 h until the reaction color was developed. The OD at 490 nm was measured in each sample using a Tecan Sunrise ELISA reader with Magellan universal reader control and data analysis software (Tecan Group Ltd., Mannedorf, Switzerland). Final OD in cellular samples was calculated by subtracting the OD of the corresponding background samples.
Data set [2] has as its system human colon carcinoma HT-29 cells. The data set is described as follows: MTS reduction test (cytotoxicity). As to conditions: free peptides 1–4 nmol/mL, 48 h, triplicate.
Protocol: as §3, §4
Data set [3] deals with human prostate carcinoma DU-145 cells. The data set can be described thus: MTS reduction test (cytotoxicity). As to conditions: free peptides 1–4 nmol/mL, 48 h, triplicate.
Protocol: as §3, §4
The target in data set [4] is neurotensin NTRS1, NTRS2 and NTRS3 receptors. Further details: method as in printed for the value. As to conditions: target receptors as in Table 3 (NTRS1, NTRS2; SR 14294 also NTRS3); not measured in this paper, ref not given; cited from earlier work.
Data set [5] can be described thus: in vivo. Set-up: species or system mice. As to conditions: male, NU/J athymic nude, mouse, 3.81 MBq, total radioactivity, Biodistribution. As to the method: (§1) All experiments were conducted according to the guidelines of EU Directive 2010/63 approved by The Romanian National Sanitary Veterinary and Food Safety Authority (NSVFSA, approval no. 442/25.02.2019). Athymic nude male mice (NU/J, 8–10 weeks old) were obtained from The Jackson Laboratory (Bar Harbor, ME, USA). Animals were housed in ventilated cages with a 12-h light-dark cycle and receive food and water ad libitum. Colon/prostate tumours were induced 7–10 days prior the experiments by a subcutaneous injection of 1 × 10^6 HT-29/DU-145 cancer cells. All injected animals were monitored daily until an ideal size of tumour for biodistribution was reached (60–100 mm^3). 3.81 ± 0.51 MBq of ^68Ga-labelled tracers were retro-orbital injected into the ophthalmic venous sinus after intraperitoneal anesthesia with 0.1 mL ketamine/xylazine/acepromazine cocktail: 7.5 mg/mL ketamine (Narkamon Bio, Bioveta, Cluj-Napoca, Romania), 1.5 mg/mL xylazine (Narcoxyl 2, MSD Animal Health, Madison, NJ, USA) and 0.25 mg/mL acepromazine (Sedam, SC Pasteur Filiala Filipesti SRL, Filipestii de Padure, Romania). All animals were sacrificed at 30 min p.i. and the organs were weighted and measured in a dose calibrator (Biodex Medical Systems Inc., Shirley, NY, USA). The biodistribution was calculated as percent of injected dose per gram of organ (% ID/g) ± standard deviation (SD, n = 4 for each injected tracer).
(§2) All the data were expressed as means ± standard deviation (n = 4). Comparison of results among the groups (% ID/g vs. tracers, % ID/g vs. tracers and organs, % ID/g vs. tracers and tumoral cells), was carried out by one-way analysis of variance (ANOVA) and Tukey post-hoc analysis using SPSS v26 (IBM, Armonk, NY, USA) The results were considered significant for a p-value less than 0.05.

Data set [6] can be described thus: in vivo. Set-up: species or system mice. As to conditions: male, NU/J athymic nude, mouse, 3.81 MBq, total radioactivity, Biodistribution. As to the method:
as §1, §2
The source holds these as a separate data set.

Data set [7] is described as follows: Dynamic light scattering of peptide-functionalized gold nanoparticles. The class given is physicochemical. The conditions noted are these: cold peptide-functionalized AuNPs, 25 °C; for Hydrodynamic Diameter: DLS, Nano ZS, 633 nm, 90°; for Zeta Potential: DLS/zetasizer. The text has this: The reaction between DOTA-peptides and NHS-activated PEG-AuNPs was monitored by detecting changes in nanoparticles size as a peptide layer is formed around nanoparticles. The initial hydrodynamic diameter of bare PEG-AuNPs was 42.56 nm, and after functionalization increased to approximately 73 nm (Figure 1). The electric potential at the boundary of the double layer (counter ions and Stern layer) of nanoparticles, also known as zeta potential is higher than −44 mV. Thus, the peptide-functionalized nanoparticles have sufficient repulsive force to anticipate a good physical stability.
The size distribution and zeta potential of cold peptide functionalized-gold nanoparticles were measured using a Nano ZS zetasizer system (Malvern Instruments, Malvern, UK). Measurement parameters were as follows: a laser wavelength of 633 nm (He-Ne), measurement angle of 90°, measurement temperature of 25 °C, and refractive index of medium n = 1.330.

The subject of a further data set is HT-29 colon cancer cells. The data set can be described thus: Uptake and retention, rotating radioimmunoassay (LigandTracer Yellow). The class given is cell-based, human. The conditions noted are these: HT-29 cells, 2–3 nmol peptide, real-time signal during incubation. As to the method: The binding kinetic (uptake and retention) of the ^68Ga-labelled peptides and peptide-functionalized gold nanoparticles we investigated using rotating radioimmunoassay. 2–3 nmol of each peptide labelled with ^68Ga was incubated on DU-145 prostate and HT-29 colon cancer cells. After uptake measurement, the radioactive medium was removed and the cells were washed with fresh DMEM-F12 medium. The cell retention is measured after this process, during each rotation of the Petri dish support the detector is measuring only the signal coming from the tracers bound to cells. The results are reported as measured signal during the time of analysis (where t = 0 min is the time of incubation), as illustrated in Figure 3. […]
The retention level is illustrated after the indicator arrows and reflects the percent of activity retained by the cells from the maximum counted during uptake, after hot medium removal and cells washing step. […]
Cells were maintained in culture according to the protocol provided by the depositor. […] Cells at passage 6–9 and were counted before seeding for experimentation by optical microscopy using a Burker-Turk counting chamber, and cell viability was assessed by the trypan blue exclusion test. […]

Peptide text beside a SMILES is read from it. * marks the point of attachment. DOTA = O=C(O)CN1CCN(CC(=O)O)CCN(CC(=O)*)CCN(CC(=O)O)CC1

Turning to `CSCC[C@H](NC(=O)[C@H](Cc1ccccc1)NC(=O)[C@H](Cc1c[nH]cn1)NC(=O)CNC(=O)[C@@H](NC(=O)[C@H](C)NC(=O)[C@H](Cc1c[nH]c2ccccc12)NC(=O)[C@H](CC(C)C)NC(=O)[C@H](CC(N)=O)NC(=O)CNC(=O)CN1CCN(CC(=O)O)CCN(CC(=O)O)CCN(CC(=O)O)CC1)[C@@H](C)O)C(N)=O` [DOTA-NMB], the “Effect on MTS reduction” value in data set [1], in data set [2] and in data set [3] was “do not alter MTS reduction” each time.

What is called Kd is the concentration at which binding is half-saturated. Regarding `Cc1ccc(S(=O)(=O)Nc2ccc3c(c2)c(C(=O)C(F)(F)F)cn3CC(=O)N[C@@H](CC(C)C)C(=O)O)cc1` [NTRC 824], the Kd in data set [4] is 38 nM.

For the molecule `COc1cccc(OC)c1-c1cc(C(=O)NC2(C(=O)O)C3CC4CC(C3)CC2C4)nn1-c1ccc(C(=O)N(C)CCCN(C)C)cc1C(C)C` (stereo not drawn) [SR 14294], in data set [4], the Kd was 10 nM.

On to `COc1cccc(OC)c1-c1cc(C(=O)NC2(C(=O)O)C3CC4CC(C3)CC2C4)nn1-c1ccnc2cc(Cl)ccc12` (stereo not drawn) [SR 48692], for which, in data set [4], the dissociation constant (Kd) was 15 nM.

One may read the tissue uptake as the percentage of the injected dose found per gram of tissue. Regarding `CSCC[C@H](NC(=O)[C@H](Cc1ccccc1)NC(=O)[C@H](Cc1c[nH]cn1)NC(=O)CNC(=O)[C@@H](NC(=O)[C@H](C)NC(=O)[C@H](Cc1c[nH]c2ccccc12)NC(=O)[C@H](CC(C)C)NC(=O)[C@H](CC(N)=O)NC(=O)CNC(=O)CN1CCN(CC(=O)O)CCN(CC(=O)O)CCN(CC(=O)O)CC1)[C@@H](C)O)C(N)=O` [^68Ga-DOTA-NMB, metal not drawn], the tissue uptake at 0.5 h in “in vivo [5]” (Bone) was found to be 0.1 ± 0.07 %ID/g; in the data set “in vivo [5]” (Tumour (colon)), 1.73 ± 0.08 %ID/g; in the data set “in vivo [6]” (Pancreas), 1.36 ± 0.07 %ID/g; in the data set “in vivo [6]” (Tumour (prostate)) it was 2.54 ± 0.42 %ID/g.

For the molecule `CC[C@H](C)[C@H](NC(=O)[C@H](Cc1ccc(O)cc1)NC(=O)[C@@H]1CCCN1C(=O)[C@@H](NC(=O)[C@H](CCCCN)NC(=O)CN1CCN(CC(=O)O)CCN(CC(=O)O)CCN(CC(=O)O)CC1)[C@@H](C)CC)C(=O)N[C@@H](CC(C)C)C(=O)O` [^68Ga-DOTA-NMN, metal not drawn] ({DOTA}-KIPYIL-OH; C-terminus assumed), the tissue uptake at 0.5 h in “in vivo [5]” (Bone) was 0.16 ± 0.02 %ID/g; in the data set “in vivo [5]” (Brain), 0.04 ± 0.01 %ID/g; in the data set “in vivo [5]” (Heart), 1 ± 0.42 %ID/g; in “in vivo [5]” (Kidneys) it was 21.1 ± 1.97 %ID/g; in “in vivo [5]” (Lungs), 2.37 ± 0.77 %ID/g; in “in vivo [5]” (Lymph Node), 0.39 ± 0.05 %ID/g. Further, the tissue uptake at 0.5 h in the data set “in vivo [5]” (Spleen) is 0.35 ± 0.02 %ID/g; in the data set “in vivo [5]” (Tumour (colon)) it was 2.02 ± 0.02 %ID/g; in “in vivo [6]” (Heart), 0.99 ± 0.26 %ID/g; in the data set “in vivo [6]” (Kidneys), roughly 60 %ID/g; in “in vivo [6]” (Lungs) it was 2.37 ± 0.5 %ID/g; in the data set “in vivo [6]” (Pancreas), 0.58 ± 0.02 %ID/g. Moreover, the tissue uptake at 0.5 h in the data set “in vivo [6]” (Tumour (prostate)) came to 1.77 ± 0.5 %ID/g.

`CSCC[C@H](NC(=O)[C@H](CC(C)C)NC(=O)[C@H](Cc1c[nH]cn1)NC(=O)CNC(=O)[C@@H](NC(=O)[C@H](C)NC(=O)[C@H](Cc1c[nH]c2ccccc12)NC(=O)[C@H](CCC(N)=O)NC(=O)CCOCCOCCOCCOCCNC(=O)CN1CCN(CC(=O)O)CCN(CC(=O)O)CCN(CC(=O)O)CC1)C(C)C)C(N)=O` [^68Ga-DOTA-PEG(4)-BBN(7-14), metal not drawn]: the tissue uptake at 0.5 h in the data set “in vivo [5]” (Blood) was 6.42 ± 0.27 %ID/g; in “in vivo [5]” (Bone), 0.75 ± 0.06 %ID/g; in the data set “in vivo [5]” (Kidneys), 18.7 ± 0.67 %ID/g; in the data set “in vivo [5]” (Lymph Node) it was 1.1 ± 0.45 %ID/g; in “in vivo [5]” (Tumour (colon)), 3.31 ± 0.76 %ID/g; in “in vivo [6]” (Blood), 6.48 ± 1.53 %ID/g. In addition, the tissue uptake at 0.5 h in “in vivo [6]” (Kidneys) worked out at 18 ± 3.78 %ID/g; in the data set “in vivo [6]” (Tumour (prostate)), 3.78 ± 0.27 %ID/g.

Turning to “DOTA-NMB-AuNP: cold DOTA-neuromedin B-functionalized gold nanoparticles”, in data set [7], the “Hydrodynamic Diameter” value was 72.18 nm and the “Zeta Potential” value is given as −47.3 mV.

With “DOTA-NMN-AuNP: cold DOTA-neuromedin N-functionalized gold nanoparticles”, in data set [7], the “Hydrodynamic Diameter” value is listed as 73.29 nm and the “Zeta Potential” value was −49.6 mV.

For the molecule “DOTA-NT-AuNP: cold DOTA-neurotensin-functionalized gold nanoparticles”, in data set [7], the “Hydrodynamic Diameter” value stood at 72.36 nm and the “Zeta Potential” value is recorded as −44.4 mV.

As for “^68Ga-DOTA-NMB-AuNP: NHS-activated PEG-gold nanoparticles functionalized with ^68Ga-DOTA-Neuromedin B”, the Uptake profile result in the data set on HT-29 colon cancer cells was “up and down trend”.

For “^68Ga-DOTA-NT-AuNP: NHS-activated PEG-gold nanoparticles functionalized with ^68Ga-DOTA-NT”, the “Hydrodynamic Diameter” value in data set [7] worked out at 72.36 nm.
